Experiments:
Type in all cases: in vivo
[1] = tested on: blackgrass (Alopecurus myosuroides); assay: Test A greenhouse herbicide test, postemergence
Outline: (§1)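 Greenhouse postemergence test: formulated chemicals sprayed on one- to two-leaf plants (2 to 10 cm), grown in loam soil blended with sand. Injury assessed visually about 10 d later against untreated controls, scored 0 (no effect) to 100 (complete control).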

[2] = tested on: galium (catchweed bedstraw, Galium aparine); assay: Test A greenhouse herbicide test, postemergence
Outline: as §1

[3] = tested on: barnyardgrass (Echinochloa crus-galli); assay: Test C greenhouse herbicide test, pre- and postemergence
Source text: (§2) Seeds of plant species selected from blackgrass (Alopecurus myosuroides), ryegrass, Italian (Italian ryegrass, Lolium multiflorum), wheat (winter wheat, Triticum aestivum), galium (catchweed bedstraw, Galium aparine), corn (Zea mays), large crabgrass, large (large crabgrass, Digitaria sanguinalis), foxtail, giant (giant foxtail, Setaria faberii), johnsongrass (Sorghum halepense), lambsquarters (Chenopodium album), morningglory (Ipomoea coccinea), nutsedge, yellow (yellow nutsedge, Cyperus esculentus), pigweed (Amaranthus retroflexus), ragweed (common ragweed, Ambrosia elatior), soybean (Glycine max), barnyardgrass (Echinochloa crus-galli), oilseed rape (Brassica napus), waterhemp (common waterhemp, Amaranthus rudis), and velvetleaf (Abutilon theophrasti) were planted into a blend of loam soil and sand and treated preemergence with test chemicals formulated in a non-phytotoxic solvent mixture which included a surfactant.
(§3) At the same time, plants selected from these crop and weed species and also chickweed (common chickweed, Stellaria media), kochia (Kochia scoparia), and oat, wild (wild oat, Avena fatua), were planted in pots containing Redi-Earth® planting medium (Scotts Company, 14111 Scottslawn Road, Marysville, Ohio 43041) comprising spaghnum peat moss, vermiculite, wetting agent and starter nutrients and treated with postemergence applications of test chemicals formulated in the same manner. Plants ranged in height from 2 to 18 cm (1- to 4-leaf stage) for postemergence treatments. Treated plants and controls were maintained in a greenhouse for 13 to 15 d, after which time all species were compared to controls and visually evaluated. Plant response ratings, summarized in Table C, are based on a scale of 0 to 100 where 0 is no effect and 100 is complete control. A dash (-) response means no test result.

[4] = tested on: crabgrass, large (large crabgrass, Digitaria sanguinalis); assay: as above
Source text: as §2, §3

[5] = tested on: foxtail, giant (giant foxtail, Setaria faberii); assay: as above
Source text: as §2, §3

[6] = tested on: galium (catchweed bedstraw, Galium aparine); assay: as above
Source text: as §2, §3

[7] = tested on: johnsongrass (Sorghum halepense); assay: as above
Source text: as §2, §3

[8] = tested on: lambsquarters (Chenopodium album); assay: as above
Source text: as §2, §3

[9] = tested on: morningglory (Ipomoea coccinea); assay: as above
Source text: as §2, §3

[10] = tested on: oilseed rape (Brassica napus); assay: as above
Source text: as §2, §3

[11] = tested on: ragweed (common ragweed, Ambrosia elatior); assay: as above
Source text: as §2, §3

[12] = tested on: ryegrass, Italian (Italian ryegrass, Lolium multiflorum); assay: as above
Source text: as §2, §3

[13] = tested on: wheat (winter wheat, Triticum aestivum); assay: as above
Source text: as §2, §3

[14] = 125 g ai/ha, 0 to 100 scale where 0 is no effect and 100 is complete control
[15] = Postemergence, 31 g ai/ha, scale 0 to 100 (0 no effect, 100 complete control)
[16] = Postemergence, 125 g ai/ha, scale 0 to 100, 0 is no effect, 100 is complete control
[17] = Postemergence, 250 g ai/ha, scale 0 to 100, 0 no effect, 100 complete control, 13 to 15 d
[18] = Preemergence, 31 g ai/ha, scale 0 to 100, 0 is no effect, 100 is complete control
[19] = Preemergence, 62 g ai/ha, scale 0 to 100, 0 is no effect, 100 is complete control
[20] = Preemergence, 125 g ai/ha, scale 0 to 100, 0 is no effect, 100 is complete control
[21] = Preemergence, 250 g ai/ha, scale 0 to 100, 0 no effect, 100 complete control
[22] = postemergence, 62 g ai/ha, scale 0 to 100, 0 no effect, 100 complete control

## Cc1ccc2ccccc2c1-c1c(O)c(C(F)(F)F)nn(C)c1=O [Compound 102]
[1]; [14]
  Plant response rating, Blackgrass: 20
[1]; 500 g ai/ha, 0 to 100 scale, 0 is no effect, 100 is complete control
  Blackgrass plant response rating: 70
[2]; [14]
  Plant response rating, Galium: 100
[2]; 500 g ai/ha, visual rating after approx. 10 d, 0 to 100 scale (0 no effect, 100 complete control)
  Plant response rating, Galium: 100
[3]; [15]
  Plant response rating, Barnyardgrass: 20
[3]; [16]
  Plant response rating, Barnyardgrass: 35
[3]; [17]
  Plant response rating, Barnyardgrass: 40
[3]; [18]
  Plant response rating, Barnyardgrass: 5
[3]; [19]
  Plant response rating, Barnyardgrass: 10
[3]; [20]
  Plant response rating, Barnyardgrass: 30
[3]; [21]
  Barnyardgrass plant response rating: 85
[3]; [22]
  Barnyardgrass plant response rating: 20
[4]; [15]
  Plant response rating, Crabgrass, Large: 5
[4]; [16]
  Plant response rating, Crabgrass, Large: 20
[4]; [17]
  Plant response rating, Crabgrass, Large: 15
[4]; [18]
  Plant response rating, Crabgrass, Large: 0
[4]; [19]
  Plant response rating, Crabgrass, Large: 5
[4]; [20]
  Plant response rating, Crabgrass, Large: 30
[4]; [21]
  Crabgrass, Large plant response rating: 55
[4]; [22]
  Crabgrass, Large plant response rating: 10
[5]; [15]
  Plant response rating, Foxtail, Giant: 20
[5]; [16]
  Plant response rating, Foxtail, Giant: 60
[5]; [17]
  Plant response rating, Foxtail, Giant: 75
[5]; [18]
  Plant response rating, Foxtail, Giant: 30
[5]; [19]
  Plant response rating, Foxtail, Giant: 75
[5]; [20]
  Plant response rating, Foxtail, Giant: 85
[5]; [21]
  Foxtail, Giant plant response rating: 90
[6]; [15]
  Plant response rating, Galium: 90
[6]; [16]
  Plant response rating, Galium: 95
[6]; [17]
  Plant response rating, Galium: 95
[6]; [20]
  Plant response rating, Galium: 95
[6]; [21]
  Galium plant response rating: 95
[7]; [15]
  Plant response rating, Johnsongrass: 0
[7]; [16]
  Plant response rating, Johnsongrass: 0
[7]; [17]
  Plant response rating, Johnsongrass: 10
[7]; [18]
  Plant response rating, Johnsongrass: 0
[7]; [19]
  Plant response rating, Johnsongrass: 0
[7]; [20]
  Plant response rating, Johnsongrass: 0
[7]; [21]
  Johnsongrass plant response rating: 0
[8]; [15]
  Plant response rating, Lambsquarters: 75
[8]; [16]
  Plant response rating, Lambsquarters: 70
[8]; [17]
  Plant response rating, Lambsquarters: 100
[8]; [18]
  Plant response rating, Lambsquarters: 70
[8]; [19]
  Plant response rating, Lambsquarters: 85
[8]; [20]
  Plant response rating, Lambsquarters: 85
[8]; [21]
  Lambsquarters plant response rating: 100
[9]; [15]
  Plant response rating, Morningglory: 100
[9]; [16]
  Plant response rating, Morningglory: 100
[9]; [17]
  Plant response rating, Morningglory: 100
[9]; [18]
  Plant response rating, Morningglory: 45
[9]; [19]
  Plant response rating, Morningglory: 75
[9]; [20]
  Plant response rating, Morningglory: 85
[9]; [21]
  Morningglory plant response rating: 98
[10]; [15]
  Plant response rating, Oilseed Rape: 0
[10]; [16]
  Plant response rating, Oilseed Rape: 5
[10]; [17]
  Plant response rating, Oilseed Rape: 30
[10]; [18]
  Plant response rating, Oilseed Rape: 0
[10]; [19]
  Plant response rating, Oilseed Rape: 10
[10]; [20]
  Plant response rating, Oilseed Rape: 10
[10]; [21]
  Oilseed Rape plant response rating: 35
[11]; [15]
  Plant response rating, Ragweed: 95
[11]; [16]
  Plant response rating, Ragweed: 100
[11]; [17]
  Plant response rating, Ragweed: 100
[11]; [18]
  Plant response rating, Ragweed: 70
[11]; [19]
  Plant response rating, Ragweed: 75
[11]; [20]
  Plant response rating, Ragweed: 90
[11]; [21]
  Ragweed plant response rating: 100
[12]; [15]
  Plant response rating, Ryegrass, Italian: 0
[12]; [16]
  Plant response rating, Ryegrass, Italian: 25
[12]; [17]
  Plant response rating, Ryegrass, Italian: 30
[12]; [18]
  Plant response rating, Ryegrass, Italian: 15
[12]; [19]
  Plant response rating, Ryegrass, Italian: 25
[12]; [20]
  Plant response rating, Ryegrass, Italian: 50
[12]; [21]
  Ryegrass, Italian plant response rating: 70
[13]; [15]
  Plant response rating, Wheat: 0
[13]; [16]
  Plant response rating, Wheat: 5
[13]; [17]
  Plant response rating, Wheat: 5
[13]; [18]
  Plant response rating, Wheat: 0
[13]; [19]
  Plant response rating, Wheat: 5
[13]; [21]
  Wheat plant response rating: 25
